Read-outs that look alike come from different tables or passages of the source.
What was measured:
[1] = target: hPAD4 (Homo sapiens, UniProt Q9UM07); assay: hPAD4 RFMS (RapidFire mass spectrometry) PAD4 inhibition assay; type: biochemical; conditions: hPAD4 enzyme, RFMS readout;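 for hPAD4 RFMS pIC50: grade E means pIC50 at most 4 and F means pIC50 4.0 to 5.0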
Experimental: (§1) Compounds of the present invention were assayed as inhibitors of PAD4 using the assay protocol described below.
(§2) Compound stock solutions were stored at RT. […] Final assay conditions were as follows:
(§3) Total incubation time: 65 mins at 37° C.
(§4) Stop solution: 40 μl 5% TCA in ACN
(§5) The compound numbers correspond to the compound numbers in Table 1. […] The term pIC50=−log(IC50). […] “NA” stands for “not assayed.”

[2] = target: mPAD4 (Mus musculus, UniProt Q9Z183); assay: mPAD4 RFMS PAD4 inhibition assay; type: biochemical; conditions: mPAD4, RFMS readout;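 for mPAD4 RFMS pIC50: grade E means pIC50 at most 4 and F means pIC50 4.0 to 5.0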
mPAD4, sequence (Q9Z183 whole entry): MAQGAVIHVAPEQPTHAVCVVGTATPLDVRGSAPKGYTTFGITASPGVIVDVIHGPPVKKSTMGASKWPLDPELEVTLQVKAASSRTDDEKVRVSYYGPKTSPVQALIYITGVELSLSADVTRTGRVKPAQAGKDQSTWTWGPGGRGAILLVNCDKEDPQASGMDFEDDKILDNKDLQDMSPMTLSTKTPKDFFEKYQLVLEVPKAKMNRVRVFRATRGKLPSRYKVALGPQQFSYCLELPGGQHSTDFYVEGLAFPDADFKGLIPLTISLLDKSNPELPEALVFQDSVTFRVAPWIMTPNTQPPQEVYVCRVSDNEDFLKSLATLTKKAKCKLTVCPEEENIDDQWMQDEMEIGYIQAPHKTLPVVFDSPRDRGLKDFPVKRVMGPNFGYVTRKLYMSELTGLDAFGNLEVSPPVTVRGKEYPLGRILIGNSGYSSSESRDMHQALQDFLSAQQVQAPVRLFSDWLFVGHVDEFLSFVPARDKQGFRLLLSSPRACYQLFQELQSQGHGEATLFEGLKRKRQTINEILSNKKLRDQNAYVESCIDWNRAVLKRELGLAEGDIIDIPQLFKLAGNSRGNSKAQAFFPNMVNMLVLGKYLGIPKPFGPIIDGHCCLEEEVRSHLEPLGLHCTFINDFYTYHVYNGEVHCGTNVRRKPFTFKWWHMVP
Experimental: as §1, §2, §3, §4, §5

[3] = pIC50=−log(IC50), read-out: hPAD4 RFMS pIC50 (converted)
[4] = pIC50=−log(IC50), read-out: mPAD4 RFMS pIC50 (converted)

hPAD4, sequence (Q9UM07 whole entry): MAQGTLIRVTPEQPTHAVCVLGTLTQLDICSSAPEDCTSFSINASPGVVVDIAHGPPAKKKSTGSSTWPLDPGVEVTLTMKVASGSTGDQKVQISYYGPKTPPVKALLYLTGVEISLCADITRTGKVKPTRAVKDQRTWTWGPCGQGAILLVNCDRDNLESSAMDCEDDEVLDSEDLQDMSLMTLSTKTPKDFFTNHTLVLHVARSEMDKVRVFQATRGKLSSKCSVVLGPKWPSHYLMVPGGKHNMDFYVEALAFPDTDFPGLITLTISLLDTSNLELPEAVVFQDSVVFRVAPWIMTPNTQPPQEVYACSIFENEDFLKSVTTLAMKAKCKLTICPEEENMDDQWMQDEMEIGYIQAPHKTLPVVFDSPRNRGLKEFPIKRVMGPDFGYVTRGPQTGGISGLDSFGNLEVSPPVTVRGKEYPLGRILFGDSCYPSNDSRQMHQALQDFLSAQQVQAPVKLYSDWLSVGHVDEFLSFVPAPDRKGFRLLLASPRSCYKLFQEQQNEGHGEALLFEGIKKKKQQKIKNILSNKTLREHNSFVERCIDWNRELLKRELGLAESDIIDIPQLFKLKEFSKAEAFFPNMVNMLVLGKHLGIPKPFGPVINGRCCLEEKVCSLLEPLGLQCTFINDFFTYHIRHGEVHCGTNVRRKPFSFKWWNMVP

SMILES	IC50 [1, 3]	IC50 ([1]; read-out: hPAD4 RFMS IC50)	IC50 [2, 4]	IC50 ([2]; read-out: mPAD4 RFMS IC50)
COc1cc(C(=O)N2C[C@H](N)CC[C@@H]2C)cc2nc(-c3cc4cccnc4n3CC3CC3)n(C)c12 [Compound I-87]	< 1000 nM	< 1000 nM	< 1000 nM	< 1000 nM
COCCn1c(-c2cc3cccnc3n2CC2CC2)nc2cc(C(=O)N3C[C@H]4CC[C@@H]3[C@@H]4N)cc(OC)c21 [Compound I-178]	< 1000 nM	< 1000 nM	< 1000 nM	< 1000 nM
Cn1c(-c2cc3cccnc3n2CC2CC2)nc2cc(C(=O)N3CC[C@@H](F)[C@H](N)C3)ccc21 [Compound I-55]	10000 to 100000 nM	> 10000 nM	10000 to 100000 nM	> 10000 nM
COc1cc(C(=O)N2CC[C@H]3CCN[C@H]3C2)cc2nc(-c3cc4cncnc4n3CC3CC3)n(C)c12 [Compound I-12, 5-[(3aR,7aR)-octahydro-1H-pyrrolo[2,3-c]pyridine-6-carbonyl]-2-[7-(cyclopropylmethyl)-7H-pyrrolo[2,3-d]pyrimidin-6-yl]-7-methoxy-1-methyl-1H-1,3-benzodiazole]	1000 to 10000 nM	1000 to 5000 nM	10000 to 100000 nM	> 10000 nM
CCCn1c(-c2nc3cc(C(=O)N4CCC[C@@H](N)C4)cc(OC)c3n2C)cc2cccnc21 [Compound I-149]	< 1000 nM	< 1000 nM	< 1000 nM	< 1000 nM
COc1cc(C(=O)N2CCC[C@@H](N)C2)cc2nc(-c3cc4cccnc4n3CCF)n(C)c12 [Compound I-146]	1000 to 10000 nM	1000 to 5000 nM	< 1000 nM	< 1000 nM
Cn1c(-c2cc3cccnc3n2CC2CC2)nc2cc(C(=O)N3CC[C@H]4CCN[C@H]4C3)ccc21 [Compound I-10]	1000 to 10000 nM	1000 to 5000 nM	1000 to 10000 nM	5000 to 10000 nM
CO[C@H]1CCN(C(=O)c2cc(OC(F)F)c3c(c2)nc(-c2cc4cccnc4n2CC2CC2)n3C)C[C@H]1N [Compound I-134]	1000 to 10000 nM	1000 to 5000 nM	< 1000 nM	< 1000 nM
COc1cc(C(=O)N2C[C@H]3C[C@H](O)[C@@H]2[C@@H]3N)cc2nc(-c3cc4cccnc4n3CC3CC3)n(C)c12 [Compound I-162, (1S,4R,6S,7R)-7-Amino-2-{2-[1-(cyclopropylmethyl)-1H-pyrrolo[2,3-b]pyridin-2-yl]-7-methoxy-1-methyl-1H-1,3-benzodiazole-5-carbonyl}-2-azabicyclo[2.2.1]heptan-6-ol]	< 1000 nM	< 1000 nM	1000 to 10000 nM	1000 to 5000 nM
CCn1c(-c2nc3cc(C(=O)N4C[C@H](N)C[C@@H](F)C4)cc(OC)c3n2C[C@H]2C[C@@](C)(OC)C2)cc2ccc(OC)nc21 [Compound I-205]	< 1000 nM	< 1000 nM	< 1000 nM	< 1000 nM
COc1cc(C(=O)N2CC[C@H](OC)[C@H](N)C2)cc2nc(-c3cc4cccnc4n3CC3CC3)n(C)c12 [Compound I-142]	1000 to 10000 nM	1000 to 5000 nM	1000 to 10000 nM	1000 to 5000 nM
CCn1c(-c2cc3cccnc3n2CC2CC2)nc2cc(C(=O)N3CC[C@@H]4CCN[C@@H]4C3)cc(OC)c21 [Compound I-23]	< 1000 nM	< 1000 nM	1000 to 10000 nM	1000 to 5000 nM
CCn1c(-c2cc3ccc(OC)nc3n2CC2CC2)nc2cc(C(=O)N3C[C@@H](N)C[C@H](F)C3)cc(OC)c21 [Compound I-92]	1000 to 10000 nM	1000 to 5000 nM	< 1000 nM	< 1000 nM
COCCn1c(-c2nc3cc(C(=O)N4CCC[C@@H](N)C4)cc(OC)c3n2C)cc2cccnc21 [Compound I-137]	1000 to 10000 nM	1000 to 5000 nM	1000 to 10000 nM	1000 to 5000 nM
COc1cc(C(=O)N2CCCC3(CNC3)C2)cc2nc(-c3cc4cccnc4n3CC3CC3)n(C)c12 [Compound I-100]	> 100000 nM	> 10000 nM	> 100000 nM	> 10000 nM
CO[C@@H]1CCN(C(=O)c2ccc3c(c2)nc(-c2cc4cccnc4n2CC2CC2)n3C)C[C@@H]1N (single isomer, unassigned) [Compound I-64]	1000 to 10000 nM	1000 to 5000 nM	1000 to 10000 nM	5000 to 10000 nM
COc1cc(C(=O)N2CCC[C@@H](N)C2)cc2nc(-c3cc4ccc(C)nc4n3CC3CC3)n(C)c12 [Compound I-199]	< 1000 nM	< 1000 nM	< 1000 nM	< 1000 nM

— patent publication US9963448B2, “Bicyclic inhibitors of PAD4” (Padlock Therapeutics, Inc., priority 2015, dated 2018)
